In experiment [1] the target is T1, KRAS WT (Homo sapiens, UniProt P01116).
T1 construct: made in house; host or cells: E. coli BL21 (DE3)
The experiment is described as follows: HTRF assay, interaction of GST-tagged K-Ras with His-tagged hSOS1 (KRAS wildtype). It counts as biochemical. The following applies: <500 nM, read-out: Inhibition of KRAS WT (IC50). An outline of the steps:
(§1)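 GST-K-Ras (G12S or WT) with anti-GST-Eu donor mixed with His-hSOS1 and anti-6His-XL665 acceptor in ~5 mM HEPES pH 7.4, 150 mM NaCl, 1 mM DTT, 0.05% BSA, 0.0025% Igepal. After ~10 min or longer, HTRF 665/620 nm ratio read.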

Experiment [2] concerns the target T2, KRAS G12S (Homo sapiens, UniProt P01116, G12S).
T2 construct: made in house; host or cells: E. coli BL21 (DE3)
The experiment is described as follows: HTRF assay, interaction of GST-tagged K-Ras with His-tagged hSOS1 (KRAS G12S). The following applies: <500 nM, read-out: Inhibition of KRAS G12S (IC50). It counts as biochemical. The procedure, abridged:
as §1
On the technique in general: In TR-FRET formats the signal depends on donor and acceptor labels being close together.

pIC50: −log10 of the molar value. A value given as a limit tells only on which side of the number the result lay.

T2 sequence (P01116 1-188 isoform P01116-2 G12S): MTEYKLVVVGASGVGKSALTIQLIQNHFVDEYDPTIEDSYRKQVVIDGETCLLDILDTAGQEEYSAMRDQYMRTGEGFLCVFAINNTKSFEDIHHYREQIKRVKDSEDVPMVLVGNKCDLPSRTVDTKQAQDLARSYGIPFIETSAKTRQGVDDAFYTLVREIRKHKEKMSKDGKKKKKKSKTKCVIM
T1 sequence (P01116 1-188 isoform P01116-2): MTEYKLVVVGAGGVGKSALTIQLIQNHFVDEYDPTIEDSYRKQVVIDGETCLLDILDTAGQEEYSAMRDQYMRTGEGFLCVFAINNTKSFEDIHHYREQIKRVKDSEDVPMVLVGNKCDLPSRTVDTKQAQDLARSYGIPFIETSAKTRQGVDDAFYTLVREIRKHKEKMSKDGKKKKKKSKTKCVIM

`C[C@H](O)[C@H]1COc2c(Cl)c(-c3ccc(F)c4sc(N)c(C#N)c34)c(F)c3nc(OC[C@@]45CCCN4C[C@H](F)C5)nc(c23)N1CCN(C)C(=O)n1ccnc1` [Compound 449, N-(2-((5R)-9-(2-amino-3-cyano-7-fluorobenzo[b]thiophen-4-yl)-8-chloro-10-fluoro-2-(((2R,7aS)-2-fluorotetrahydro-1H-pyrrolizin-7a(5H)-yl)methoxy)-5-((S)-1-hydroxyethyl)-5,6-dihydro-4H-[1,4]oxazepino [5,6,7-de]quinazolin-4-yl)ethyl)-N-methyl-1H-imidazole-1-carboxamide]: the pIC50 in experiment [1] and in experiment [2] was > 6.30 in each case.

As for `Cc1cn(C(=O)N2CC[C@@H](N3CCCCc4nc(-c5ccc(F)c6sc(N)c(C#N)c56)c(F)c5nc(OC[C@@]67CCCN6C[C@H](F)C7)nc3c45)[C@H]2C)c(C)n1` [Compound 454, 2-amino-4-(11-((2R,3R)-1-(2,4-dimethyl-1H-imidazole-1-carbonyl)-2-methylpyrrolidin-3-yl)-4-fluoro-2-(((2R,7aS)-2-fluorotetrahydro-1H-pyrrolizin-7a (5H)-yl)methoxy)-8,9,10,11-tetrahydro-7H-1,3,6,11-tetraazacycloocta[de]naphthalen-5-yl)-7-fluorobenzo[b]thiophene-3-carbonitrile], the pIC50 in experiment [1] and in experiment [2] was > 6.30 in each case.

In the case of `C[C@@H]1CCOc2c(Cl)c(-c3ccc(F)c4sc(N)c(C#N)c34)c(F)c3nc(OC[C@@]45CCCN4C[C@H](F)C5)nc(c23)N1C[C@@H]1CN(C(=O)n2ccnc2)[C@@H]1C1(C)CC1` [Compound 455, 4-((5R)-4-(((2S,3R)-1-(1H-imidazole-1-carbonyl)-2-(1-methylcyclopropyl)azetidin-3-yl)methyl)-9-chloro-11-fluoro-2-(((2R,7aS)-2-fluorotetrahydro-1H-pyrrolizin-7a(5H)-yl)methoxy)-5-methyl-4,5,6,7-tetrahydro-[1,5]oxazocino[4,3,2-de]quinazolin-10-yl)-2-amino-7-fluorobenzo [b]thiophene-3-carbonitrile], the pIC50 in experiment [1] and in experiment [2] was > 6.30 in each case.

Turning to `CC#CC(=O)N1CC(CN2CCOc3c(Cl)c(-c4ccc(F)c5sc(N)c(C#N)c45)c(F)c4nc(OC[C@@]56CCCN5C[C@H](F)C6)nc2c34)C1` [Compound 456, 2-amino-4-(4-((1-(but-2-ynoyl)azetidin-3-yl)methyl)-8-chloro-10-fluoro-2-(((2R,7aS)-2-fluorotetrahydro-1H-pyrrolizin-7a (5H)-yl)methoxy)-5,6-dihydro-4H-[1,4]oxazepino[5,6,7-de]quinazolin-9-yl)-7-fluorobenzo[b]thiophene-3-carbonitrile], the pIC50 in experiment [1] and in experiment [2] was > 6.30 throughout.

As for `CC1C(CN2c3nc(OC[C@@]45CCCN4C[C@H](F)C5)nc4c(F)c(-c5ccc(F)c6sc(N)c(C#N)c56)c(Cl)c(c34)OC[C@@H]2[C@H](C)O)CCN1C(=O)n1ccnc1` (stereo partly drawn) [Compound 457, 4-((5R)-4-((1-(1H-imidazole-1-carbonyl)-2-methylpyrrolidin-3-yl)methyl)-8-chloro-10-fluoro-2-(((2R,7aS)-2-fluorotetrahydro-1H-pyrrolizin-7a(5H)-yl)methoxy)-5-((S)-1-hydroxyethyl)-5,6-dihydro-4H-[1,4]oxazepino[5,6,7-de]quinazolin-9-yl)-2-amino-7-fluorobenzo[b]thiophene-3-carbonitrile], the negative logarithm of the IC50 (pIC50) in experiment [1] and in experiment [2] was > 6.30 in each case.

As for `C/C(C#N)=C/C(=O)N1CC(CN2CCOc3c(Cl)c(-c4ccc(F)c5sc(N)c(C#N)c45)c(F)c4nc(OC[C@@]56CCCN5C[C@H](F)C6)nc2c34)C1` [Compound 459, 2-amino-4-(8-chloro-4-((1-((Z)-3-cyanobut-2-enoyl)azetidin-3-yl)methyl)-10-fluoro-2-(((2R, 7aS)-2-fluorotetrahydro-1H-pyrrolizin-7a(5H)-yl)methoxy)-5,6-dihydro-4H-[1,4]oxazepino[5,6,7-de]quinazolin-9-yl)-7-fluorobenzo [b]thiophene-3-carbonitrile], the pIC50 in experiment [1] and in experiment [2] was > 6.30 throughout.

Regarding `C[C@@H]1[C@H](N2C[C@H](C)Oc3nc(-c4ccc(F)c5sc(N)c(C#N)c45)c(F)c4nc(OC[C@@]56CCCN5C[C@H](F)C6)nc2c34)CCN1C(=O)n1cnc(Cl)n1` [Compound 461, 2-amino-4-((S)-10-((2R,3R)-1-(3-chloro-1H-1,2,4-triazole-1-carbonyl)-2-methylpyrrolidin-3-yl)-4-fluoro-2-(((2R,7aS)-2-fluorotetrahydro-1H-pyrrolizin-7a(5H)-yl)methoxy)-8-methyl-9,10-dihydro-8H-7-oxa-1,3,6,10-tetraazacyclohepta[de]naphthalen-5-yl)-7-fluorobenzo[b]thiophene-3-carbonitrile], the pIC50 in experiment [1] and in experiment [2] was > 6.30 each time.

`N#Cc1c(N)sc2c(F)ccc(-c3c(Cl)c4c5c(nc(OC[C@@]67CCCN6C[C@H](F)C7)nc5c3F)N(CC3CN(C(=O)C5=CCCC5)C3)CCO4)c12` [Compound 462, 2-amino-4-(8-chloro-4-((1-(cyclopent-1-ene-1-carbonyl)azetidin-3-yl)methyl)-10-fluoro-2-(((2R,7aS)-2-fluorotetrahydro-1H-pyrrolizin-7a(5H)-yl)methoxy)-5,6-dihydro-4H-[1,4]oxazepino [5,6,7-de]quinazolin-9-yl)-7-fluorobenzo[b]thiophene-3-carbonitrile]: the pIC50 in experiment [1] and in experiment [2] was > 6.30 in each case.

For the compound `N#Cc1c(N)sc2c(F)ccc(-c3c(Cl)c4c5c(nc(OC[C@@]67CCCN6C[C@H](F)C7)nc5c3F)N(CC3(O)CN(C(=O)n5ccnc5)C3)CCO4)c12` [Compound 463, 2-amino-4-(8-chloro-10-fluoro-2-(((2R,7aS)-2-fluorotetrahydro-1H-pyrrolizin-7a(5H)-yl)methoxy)-4-((3-hydroxy-1-(1H-imidazole-1-carbonyl)azetidin-3-yl)methyl)-5,6-dihydro-4H-[1,4]oxazepino [5,6,7-de]quinazolin-9-yl)-7-fluorobenzo[b]thiophene-3-carbonitrile], the pIC50 in experiment [1] and in experiment [2] was > 6.30 each time.

As to `Cc1cn(C(=O)N2CC[C@@H](N3C[C@H](C)Oc4c(Cl)c(-c5ccc(F)c6sc(N)c(C#N)c56)c(F)c5nc(OC[C@@]67CCCN6C[C@H](F)C7)nc3c45)[C@H]2C)c(C)n1` [Compound 464, 2-amino-4-((6S)-8-chloro-4-((2R,3R)-1-(2,4-dimethyl-1H-imidazole-1-carbonyl)-2-methylpyrrolidin-3-yl)-10-fluoro-2-(((2R,7aS)-2-fluorotetrahydro-1H-pyrrolizin-7a(5H)-yl)methoxy)-6-methyl-5,6-dihydro-4H-[1,4]oxazepino[5,6,7-de]quinazolin-9-yl)-7-fluorobenzo[b] thiophene-3-carbonitrile], the pIC50 in experiment [1] and in experiment [2] was > 6.30 in each case.

Turning to `C=CC(=O)N1CC(CN2CCOc3c(Cl)c(-c4ccc(F)c5sc(N)c(C#N)c45)c(F)c4nc(OC[C@@]56CCCN5C[C@H](F)C6)nc2c34)C1` [Compound 466, 4-(4-((1-acryloylazetidin-3-yl)methyl)-8-chloro-10-fluoro-2-(((2R,7aS)-2-fluorotetrahydro-1H-pyrrolizin-7a(5H)-yl)methoxy)-5,6-dihydro-4H-[1,4]oxazepino[5,6,7-de]quinazolin-9-yl)-2-amino-7-fluorobenzo[b]thiophene-3-carbonitrile], the pIC50 in experiment [1] and in experiment [2] was > 6.30 each time.

`CN(C)C/C=C/C(=O)N1CC(CN2CCOc3c(Cl)c(-c4ccc(F)c5sc(N)c(C#N)c45)c(F)c4nc(OC[C@@]56CCCN5C[C@H](F)C6)nc2c34)C1` [Compound 469, 2-amino-4-(8-chloro-4-((1-((E)-4-(dimethylamino)but-2-enoyl)azetidin-3-yl)methyl)-10-fluoro-2-(((2R, 7aS)-2-fluorotetrahydro-1H-pyrrolizin-7a(5H)-yl)methoxy)-5,6-dihydro-4H-[1,4]oxazepino[5,6,7-de]quinazolin-9-yl)-7-fluorobenzo [b]thiophene-3-carbonitrile]: the pIC50 in experiment [1] and in experiment [2] was > 6.30 throughout.

Consider `C=CC(=O)N1CC[C@@H](N2CCOc3c(Cl)c(-c4ccc(F)c5sc(N)c(C#N)c45)c(F)c4nc(OC[C@@]56CCCN5C[C@H](F)C6)nc2c34)[C@H]1C` [Compound 470, 4-(4-((2R,3R)-1-acryloyl-2-methylpyrrolidin-3-yl)-8-chloro-10-fluoro-2-(((2R, 7aS)-2-fluorotetrahydro-1H-pyrrolizin-7a(5H)-yl)methoxy)-5,6-dihydro-4H-[1,4]oxazepino[5,6,7-de]quinazolin-9-yl)-2-amino-7-fluorobenzo[b]thiophene-3-carbonitrile], for which the pIC50 in experiment [1] and in experiment [2] was > 6.30 throughout.

Regarding `CC(C)[C@@H]1[C@H](CN2CCOc3c(Cl)c(-c4ccc(F)c5sc(N)c(C#N)c45)c(F)c4nc(OC[C@@]56CCCN5C[C@H](F)C6)nc2c34)CN1C(=O)n1cnc(F)n1` [Compound 471, 2-amino-4-(8-chloro-10-fluoro-4-(((2R,3R)-1-(3-fluoro-1H-1,2,4-triazole-1-carbonyl)-2-isopropylazetidin-3-yl)methyl)-2-(((2R,7aS)-2-fluorotetrahydro-1H-pyrrolizin-7a (5H)-yl)methoxy)-5,6-dihydro-4H-[1,4]oxazepino[5,6,7-de]quinazolin-9-yl)-7-fluorobenzo[b]thiophene-3-carbonitrile], the pIC50 in experiment [1] and in experiment [2] was > 6.30 in each case.

Values taken from patent publication US12606572B2, “Substituted heterocycles and uses thereof” (Kumquat Biosciences Inc., priority 2023, dated 2026).
